Activity calls are given as the source filed them. No cut-off for these calls is given here.
Legend:
MDA-MB-231 [1] = experiment: Cytotoxicity against human MDA-MB-231 cells assessed as cell viability at 100 uM incubated for 48 hrs by MTT assay relative to control; format: functional; settings: MDA-MB-231, 48 h, read-out: Activity
SK-BR-3 [2] = experiment: Cytotoxicity against human SKBR3 cells assessed as cell viability at 100 uM incubated for 48 hrs by MTT assay relative to control; format: functional; settings: SK-BR-3, 48 h, read-out: Activity
A549 [3] = experiment: Cytotoxicity against human A549 cells assessed as cell viability at 100 uM incubated for 48 hrs by MTT assay relative to control; format: functional; settings: A549, 48 h, read-out: Activity
MDA-MB-231 [4] = experiment: Cytotoxicity against human MDA-MB-231 cells incubated for 48 hrs by MTT assay; format: functional, cell-based; settings: MDA-MB-231, 48 h
SK-BR-3 [5] = experiment: Cytotoxicity against human SKBR3 cells incubated for 48 hrs by MTT assay; format: functional, cell-based; settings: SK-BR-3, 48 h
A549 [6] = experiment: Cytotoxicity against human A549 cells incubated for 48 hrs by MTT assay; format: functional, cell-based; settings: A549, 48 h
MDA-MB-231 [7] = experiment: Cytotoxicity against human MDA-MB-231 cells assessed as reduction in cell viability at 25 to 50 uM incubated for 48 hrs by MTT assay relative to control; format: functional, cell-based
MDA-MB-231 [8] = experiment: Cytotoxicity against human MDA-MB-231 cells assessed as reduction in cell viability at 25 to 100 uM incubated for 48 hrs by MTT assay relative to control; format: functional, cell-based
MDA-MB-231 [9] = experiment: Cytotoxicity against human MDA-MB-231 cells assessed as reduction in cell viability at 12.5 to 100 uM incubated for 48 hrs by MTT assay relative to control; format: functional, cell-based
MDA-MB-231 [10] = experiment: Cytotoxicity against human MDA-MB-231 cells assessed as reduction in cell viability at 50 to 100 uM incubated for 48 hrs by MTT assay relative to control; format: functional, cell-based
A549 [11] = experiment: Cytotoxicity against human A549 cells assessed as reduction in cell viability at 25 to 100 uM incubated for 48 hrs by MTT assay relative to control; format: functional, cell-based

Row | SMILES | viability at 100 µM (MDA-MB-231 [1]) [%] | viability at 100 µM (SK-BR-3 [2]) [%] | viability at 100 µM (A549 [3]) [%] | IC50 (MDA-MB-231 [4]) [µM] | IC50 (SK-BR-3 [5]) [µM] | IC50 (A549 [6]) [µM] | Activity (MDA-MB-231 [7]) | Activity (MDA-MB-231 [8]) | Activity (MDA-MB-231 [9]) | Activity (MDA-MB-231 [10]) | Activity (A549 [11])
1 | CC1(C)O[C@H]2CC(=O)OC[C@]23[C@H]2CCC4=C([C@H]5CCC(=O)O5)C(=O)CC[C@@]4(C)[C@]2(C)CC[C@@H]13 | > 50 | > 50 | > 50 | > 10 | > 10 | > 10 | – | – | – | – | –
2 | COC(=O)[C@@H]1C2=C(CC[C@]3(C)C2=CC[C@@H]2[C@@]45COC(=O)C[C@@H]4OC(C)(C)[C@@H]5C[C@@H](O)[C@]23C)OC(=O)CC1(C)C | > 50 | > 50 | > 50 | > 10 | > 10 | > 10 | – | – | – | – | –
3 | COC(=O)[C@H](C1=C2[C@H]3O[C@H]3[C@@H]3[C@@]45COC(=O)C[C@@H]4OC(C)(C)[C@@H]5C[C@@H](OC(=O)c4ccccc4)[C@@]3(C)[C@]2(C)CCC1=O)C(C)(C)CC(=O)O | > 50 | > 50 | > 50 | > 10 | > 10 | > 10 | Active | – | – | – | –
4 | CC1(C)O[C@H]2CC(=O)OC[C@]23[C@H]2CCC4=C([C@H]5CCC(=O)O5)C(=O)CC[C@@]4(C)[C@]2(C)[C@H](OC(=O)c2ccccc2)C[C@@H]13 | > 50 | > 50 | > 50 | > 10 | > 10 | > 10 | – | Active | – | – | –
5 | CC1(C)O[C@H]2CC(=O)OC[C@]23[C@H]2CCC4=C([C@@H]5CCC(=O)O5)C(=O)CC[C@@]4(C)[C@]2(C)[C@H](OC(=O)c2ccccc2)C[C@@H]13 | > 50 | > 50 | > 50 | > 10 | > 10 | > 10 | – | – | Active | – | –
6 | COC(=O)[C@H](C1=C2C=C[C@@H]3[C@@]45COC(=O)C[C@@H]4OC(C)(C)[C@@H]5C[C@@H](OC(=O)c4ccccc4)[C@@]3(C)[C@]2(C)CCC1=O)C(C)(C)CC(=O)O | > 50 | > 50 | > 50 | > 10 | > 10 | > 10 | – | – | – | Active | –
7 | COC(=O)CC(C)(C)[C@H](C(=O)OC)C1=C2CC[C@@H]3[C@@]45COC(=O)C[C@@H]4OC(C)(C)[C@@H]5C[C@@H](OC(=O)c4ccccc4)[C@@]3(C)[C@]2(C)CCC1=O | > 50 | > 50 | > 50 | > 10 | > 10 | > 10 | – | – | – | – | –
8 | COC(=O)CC(C)(C)[C@H](C(=O)OC)C1=C2CC[C@@H]3[C@@]45COC(=O)C[C@@H]4OC(C)(C)[C@@H]5CC[C@@]3(C)[C@]2(C)CCC1=O | > 50 | > 50 | > 50 | > 10 | > 10 | > 10 | – | – | – | Active | Active

Reference: ChEMBL document CHEMBL4622917, “Structure Elucidation and Absolute Configuration Determination of Nortriterpenoids from Picramnia glazioviana” (J Nat Prod, 2020)
